Measured values taken from patent publication US10954221B2, “GLP-1R agonists and uses thereof” (QILU REGOR THERAPEUTICS INC., priority 2019, dated 2021).

Columns and labels:
[1] = molecular target: T1, GLP1R (Homo sapiens, UniProt P43220); experiment: GLP1R cAMP assay (HTRF), HEK293/GLP-1R/CRE/Luc, Clone 4
Target sequence in this assay (P43220 24-463): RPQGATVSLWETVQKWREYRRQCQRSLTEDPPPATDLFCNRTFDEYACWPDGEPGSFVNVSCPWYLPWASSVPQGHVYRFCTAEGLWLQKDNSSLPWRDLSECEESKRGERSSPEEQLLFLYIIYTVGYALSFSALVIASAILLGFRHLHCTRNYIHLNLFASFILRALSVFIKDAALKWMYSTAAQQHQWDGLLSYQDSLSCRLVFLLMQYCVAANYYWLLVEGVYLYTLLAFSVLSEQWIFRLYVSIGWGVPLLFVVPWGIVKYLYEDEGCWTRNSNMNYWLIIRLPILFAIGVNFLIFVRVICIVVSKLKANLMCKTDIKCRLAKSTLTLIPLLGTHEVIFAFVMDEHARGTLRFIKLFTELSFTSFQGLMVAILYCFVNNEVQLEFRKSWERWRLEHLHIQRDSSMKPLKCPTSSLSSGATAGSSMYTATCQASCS

[2] = molecular target: T1, GLP1R; experiment: cAMP assay in CHO cells stably expressing hGLP-1R; type: cell-based; design: expressed in transfected cells; host or cells: CHO cells stably transfected; conditions: CHO cells stably expressing hGLP-1R (Table 2), read-out: CHO cAMP stable EC50
Procedure: GLP-1R-mediated agonist activity was determined with a cell-based functional assay utilizing an HTRF (Homogeneous Time-Resolved Fluorescence) cAMP detection kit (cAMP Dynamic 2 Assay Kit; CisBio cat #62AM4PEC) that measures cAMP levels in the cell. The method is a competitive immunoassay between native cAMP produced by the cells and exogenous cAMP labeled with the dye d2. The tracer binding is visualized by a mAb anti-cAMP labeled with Cryptate. The specific signal (i.e., energy transfer) is inversely proportional to the concentration of cAMP in either standard or experimental sample.
Following the 30 minute incubation, 5 μL of labeled d2 cAMP and 5 μL of anti-cAMP antibody (both diluted 1:20 in cell lysis buffer; as described in the manufacturer's assay protocol) were added to each well of the assay plate. […] Raw data were converted to nM cAMP by interpolation from a cAMP standard curve (as described in the manufacturer's assay protocol) and the percent effect was determined relative to a saturating concentration of the full agonist GLP-17-37 (10 nM) included on each plate. EC50 determinations were made from agonist dose-response curves analyzed with a curve fitting program using a 4-parameter logistic dose response equation. […]
Target sequence in this assay (P43220 24-463): as above

[3] = molecular target: T1, GLP1R; design: Emax: dose or concentration left out as unconfirmed; conditions: CHO-K1, […], read-out: β-arrestin recruitment Bmax (%)
Target sequence in this assay (P43220 24-463): as above
Target sequence in this assay (P32121 whole entry partner): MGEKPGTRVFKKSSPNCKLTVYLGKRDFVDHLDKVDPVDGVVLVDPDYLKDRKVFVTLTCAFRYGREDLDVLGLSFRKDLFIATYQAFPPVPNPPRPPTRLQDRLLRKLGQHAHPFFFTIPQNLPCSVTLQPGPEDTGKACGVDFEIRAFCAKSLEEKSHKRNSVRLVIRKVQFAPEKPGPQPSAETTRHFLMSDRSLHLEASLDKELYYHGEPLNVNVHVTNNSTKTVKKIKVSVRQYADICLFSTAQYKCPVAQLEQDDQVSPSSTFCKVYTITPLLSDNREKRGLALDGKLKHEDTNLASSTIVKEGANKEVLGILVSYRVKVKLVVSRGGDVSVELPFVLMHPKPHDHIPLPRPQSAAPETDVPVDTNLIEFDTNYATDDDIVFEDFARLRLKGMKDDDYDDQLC

[4] = molecular target: T1, GLP1R; experiment: β-Arrestin-mediated GLP1R internalization assay (PathHunter U2OS cells); type: cell-based; design: host or cells: PathHunter engineered U2OS cells; conditions: averaged Bmax where applicable, Percentage of Control GLP-1 (7-37), top 10 μM, 180 min
Description: A similar assay can also be used to assess the extent of signal attenuation due to GLP-1R internalization (the Internalization Assay). In this assay, activated GLP1R Internalization cells were engineered to co-express an untagged GLP1R, Enzyme Acceptor (EA) tagged β-Arrestin, and a ProLink™ (PK) tag localized to the endosomes. Activation of the GLP1R induces β-Arrestin recruitment, which leads to internalization of the Receptor/Arrestin-EA complex in PK-tagged endosomes. This forces complementation of the two β-galactosidase enzyme fragments (EA and PK) to form a functional enzyme that hydrolyzes substrate to generate a chemiluminescent signal.
Frozen cells were quickly thawed and 10 mL of cell plating medium (provided by the kit) was added to thawed cells. Cells were stored in a 37° C. incubator and kept for approximately 48 hours until ready for the assay.
Reference and test compounds were dissolved in 100% DMSO. […] 5 μL of this solution was added to 20 μL cell medium in assay plate for a final top concentration of 10 μM. Plates were incubated at 37° C. for 180 min.
Following 180 min incubation, detection reagents were made up by combining 1 part Galacton Star Substrate with 5 parts Emerald II™ Solution, and 19 parts of PathHunter Cell Assay Buffer, respectively. 12.5 μL detection reagent was added to each well. The plates were then incubated at room temperature for 60 min. Plates were then read on Envision for 0.1 sec/well.
EC50 determinations were made from agonist dose-response curves analyzed with a curve fitting program using a 4-parameter logistic dose response equation.
Target sequence in this assay (P43220 24-463): as the sequence (P43220 24-463) above
Target sequence in this assay (P32121 whole entry partner): as the sequence (P32121 whole entry partner) above

EC50 [1] [nM]	EC50 [2] [nM]	Emax [3] [%]	β-arrestin internalization Bmax (POC) [4] [POC]	SMILES
< 15	< 15	18.9		N#Cc1ccc(COc2nc(-c3ccc(Cc4nc5ccc(C(=O)O)nc5n4C[C@@H]4CCO4)c(F)c3)ncc2F)c(F)c1 [Compound 263, (S)-2-(4-(4-(4-cyano-2-fluorobenzyloxy)-5-fluoropyrimidin-2-yl)-2-fluorobenzyl)-3-(oxetan-2-ylmethyl)-3H-imidazo[4,5-b]pyridine-5-carboxylic acid]
< 15	< 15	26.7 ± 4.76	19.9 ± 0.122	N#Cc1ccc(COc2nc(-c3ccc(Cc4nc5ccc(C(=O)O)cc5n4C[C@@H]4CCO4)c(F)c3)ncc2F)c(F)c1 [Compound 266, (S)-2-(4-(4-((4-cyano-2-fluorobenzyl)oxy)-5-fluoropyrimidin-2-yl)-2-fluorobenzyl)-1-(oxetan-2-ylmethyl)-1H-benzo[d]imidazole-6-carboxylic acid]
< 15	15 to 150			O=C(O)c1ccc2nc(Cc3cc(F)c(-c4ncc(F)c(OCc5ncc(Cl)cc5F)n4)cc3F)n(C[C@@H]3CCO3)c2c1 [Compound 272, (S)-2-(4-(4-((5-chloro-3-fluoropyridin-2-yl)methoxy)-5-fluoropyrimidin-2-yl)-2,5-difluorobenzyl)-1-(oxetan-2-ylmethyl)-1H-benzo[d]imidazole-6-carboxylic acid]
< 15	< 15	35.6 ± 3.9	26.7	O=C(O)c1ccc2nc(Cc3cc(F)c(-c4cccc(OCc5ncc(Cl)cc5F)n4)cc3F)n(C[C@@H]3CCO3)c2n1 [Compound 276, (S)-2-(4-(6-((5-chloro-3-fluoropyridin-2-yl)methoxy)pyridin-2-yl)-2,5-difluorobenzyl)-3-(oxetan-2-ylmethyl)-3H-imidazo[4,5-b]pyridine-5-carboxylic acid]
< 15	< 15	36.2 ± 5.56	36.5	N#Cc1cnc(COc2cccc(-c3cc(F)c(Cc4nc5ccc(C(=O)O)nc5n4C[C@@H]4CCO4)cc3F)n2)c(F)c1 [Compound 278, (S)-2-(4-(6-((5-cyano-3-fluoropyridin-2-yl)methoxy)pyridin-2-yl)-2,5-difluorobenzyl)-3-(oxetan-2-ylmethyl)-3H-imidazo[4,5-b]pyridine-5-carboxylic acid]
< 15	< 15			N#Cc1ccc(COc2cccc(-c3cc(F)c(Cc4nc5ccc(C(=O)O)nc5n4C[C@@H]4CCO4)cc3F)n2)nc1 [Compound 279, (S)-2-(4-(6-((5-cyanopyridin-2-yl)methoxy)pyridin-2-yl)-2,5-difluorobenzyl)-3-(oxetan-2-ylmethyl)-3H-imidazo[4,5-b]pyridine-5-carboxylic acid]
< 15	15 to 150			N#Cc1ccc(COc2nc(-c3cc(F)c(Cc4nc5ccc(C(=O)O)nc5n4C[C@@H]4CCO4)cc3F)ncc2F)nc1 [Compound 280, (S)-2-(4-(4-((5-cyanopyridin-2-yl)methoxy)-5-fluoropyrimidin-2-yl)-2,5-difluorobenzyl)-3-(oxetan-2-ylmethyl)-3H-imidazo[4,5-b]pyridine-5-carboxylic acid]
	15 to 150			O=C(O)c1ccc2nc(Cc3ccc(-c4cccc(OCc5ccc(Cl)cc5F)n4)cc3F)n(C[C@@H]3CCO3)c2n1 [Compound 287, (S)-2-(4-(6-((4-chloro-2-fluorobenzyl)oxy)pyridin-2-yl)-2-fluorobenzyl)-3-(oxetan-2-ylmethyl)-3H-imidazo[4,5-b]pyridine-5-carboxylic acid]
< 15	15 to 150			N#Cc1ccc(COc2cccc(-c3ccc(Cc4nc5ccc(C(=O)O)nc5n4C[C@@H]4CCO4)c(F)c3)n2)nc1 [Compound 288, (S)-2-(4-(6-((5-cyanopyridin-2-yl)methoxy)pyridin-2-yl)-2-fluorobenzyl)-3-(oxetan-2-ylmethyl)-3H-imidazo[4,5-b]pyridine-5-carboxylic acid]
< 15	15 to 150			O=C(O)c1ccc2nc(Cc3ccc(-c4ncc(F)c(OCc5ncc(Cl)cc5F)n4)cc3F)n(C[C@@H]3CCO3)c2n1 [Compound 294, (S)-2-(4-(4-((5-chloro-3-fluoropyridin-2-yl)methoxy)-5-fluoropyrimidin-2-yl)-2-fluorobenzyl)-3-(oxetan-2-ylmethyl)-3H-imidazo[4,5-b]pyridine-5-carboxylic acid]
< 15	< 15			O=C(O)c1ccc2nc(Cc3cc(F)c(-c4cccc(OCc5ccc(Cl)cn5)n4)cc3F)n(C[C@@H]3CCO3)c2n1 [Compound 296, (S)-2-(4-(6-((5-chloropyridin-2-yl)methoxy)pyridin-2-yl)-2,5-difluorobenzyl)-3-(oxetan-2-ylmethyl)-3H-imidazo[4,5-b]pyridine-5-carboxylic acid]
< 15	15 to 150			O=C(O)c1ccc2nc(Cc3cc(F)c(-c4cccc(OCc5ccc(F)cn5)n4)cc3F)n(C[C@@H]3CCO3)c2n1 [Compound 298, (S)-2-(2,5-difluoro-4-(6-((5-fluoropyridin-2-yl)methoxy)pyridin-2-yl)benzyl)-3-(oxetan-2-ylmethy)-3H-imidazo[4,5-b]pyridine-5-carboxylic acid]
< 15	15 to 150			O=C(O)c1ccc2nc(Cc3cc(F)c(-c4ncc(F)c(OCc5ccc(Cl)cn5)n4)cc3F)n(C[C@@H]3CCO3)c2n1 [Compound 300, (S)-2-(4-(4-((5-chloropyridin-2-yl)methoxy)-5-fluoropyrimidin-2-yl)-2,5-difluorobenzyl)-3-(oxetan-2-ylmethyl)-3H-imidazo[4,5-b]pyridine-5-carboxylic acid]
< 15	15 to 150			N#Cc1cnc(COc2nc(-c3ccc(Cc4nc5ccc(C(=O)O)nc5n4C[C@@H]4CCO4)c(F)c3)ncc2F)c(F)c1 [Compound 301, (S)-2-(4-(4-((5-cyano-3-fluoropyridin-2-yl)methoxy)-5-fluoropyrimidin-2-yl)-2-fluorobenzyl)-3-(oxetan-2-ylmethyl)-3H-imidazo[4,5-b]pyridine-5-carboxylic acid]
< 15	< 15	37.8		N#Cc1ccc(COc2cccc(-c3ccc(Cc4nc5ccc(C(=O)O)c(F)c5n4C[C@@H]4CCO4)c(F)c3)n2)c(F)c1 [Compound 310, (S)-2-(4-(6-((4-cyano-2-fluorobenzyl)oxy)pyridin-2-yl)-2-fluorobenzyl)-7-fluoro-1-(oxetan-2-ylmethyl)-1H-benzo[d]imidazole-6-carboxylic acid]
< 15	15 to 150			N#Cc1ccc(COc2cccc(-c3ccn(Cc4nc5ccc(C(=O)O)c(F)c5n4C[C@@H]4CCO4)c(=O)c3)n2)c(F)c1 [Compound 322, (S)-2-((6-((4-cyano-2-fluorobenzyl)oxy)-2′-oxo-[2,4′-bipyridin]-1′(2′H)-yl)methyl)-7-fluoro-1-(oxetan-2-ylmethyl)-1H-benzo[d]imidazole-6-carboxylic acid]
15 to 150	> 1000			O=C(O)c1ccc2nn(Cc3ccc(-c4cccc(OCc5ccc(Cl)cc5F)n4)cc3F)c(CC3CCO3)c2c1 (centres unmarked) [Compound 326, 2-(4-(6-(4-chloro-2-fluorobenzyloxy)pyridin-2-yl)-2-fluorobenzyl)-3-(oxetan-2-ylmethyl)-2H-indazole-S-carboxylic acid]
